Experimental data: the supplement of paper PMC10307832

Legend:
Assay in all cases: relative viability (nuclei count vs DMSO), 5 days (fraction); higher = more cells survive
17-AAG + Lapatinib = compound: C=CCNC1=C2C[C@@H](C)C[C@H](OC)[C@H](O)[C@@H](C)/C=C(\C)[C@H](OC(N)=O)[C@@H](OC)/C=C\C=C(/C)C(=O)NC(=CC1=O)C2=O [17-AAG] + CS(=O)(=O)CCNCc1ccc(-c2ccc3ncnc(Nc4ccc(OCc5cccc(F)c5)c(Cl)c4)c3c2)o1 [Lapatinib] (partner 2 µM)
Summary of the method: (§1)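 A single step with final 0.05% Triton X-100, 1% formaldehyde and 1 ug/ml Hoechst fixed the cells and stained nuclei 5 days after treatment. Lung cancer cell lines in 1536-well plates had been treated by pin tool the day after seeding with one drug alone or a fixed anchor-drug dose plus five library-drug doses (not always all listed) in √10 steps, and nuclei were counted on 4× images. Relative viability is the ratio of nuclei in treated wells to nuclei in vehicle wells, taken as the median of duplicate plates.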

17-AAG + OSI-027 = compound: C=CCNC1=C2C[C@@H](C)C[C@H](OC)[C@H](O)[C@@H](C)/C=C(\C)[C@H](OC(N)=O)[C@@H](OC)/C=C\C=C(/C)C(=O)NC(=CC1=O)C2=O [17-AAG] + COc1cccc2cc(-c3nc([C@H]4CC[C@H](C(=O)O)CC4)n4ncnc(N)c34)[nH]c12 [OSI-027] (partner 0.5 µM)
Summary of the method: as §1

17-AAG + Linsitinib = compound: C=CCNC1=C2C[C@@H](C)C[C@H](OC)[C@H](O)[C@@H](C)/C=C(\C)[C@H](OC(N)=O)[C@@H](OC)/C=C\C=C(/C)C(=O)NC(=CC1=O)C2=O [17-AAG] + C[C@]1(O)C[C@@H](c2nc(-c3ccc4ccc(-c5ccccc5)nc4c3)c3c(N)nccn32)C1 [Linsitinib] (partner 1 µM)
Summary of the method: as §1

17-AAG + Alpelisib = compound: C=CCNC1=C2C[C@@H](C)C[C@H](OC)[C@H](O)[C@@H](C)/C=C(\C)[C@H](OC(N)=O)[C@@H](OC)/C=C\C=C(/C)C(=O)NC(=CC1=O)C2=O [17-AAG] + Cc1nc(NC(=O)N2CCC[C@H]2C(N)=O)sc1-c1ccnc(C(C)(C)C(F)(F)F)c1 [Alpelisib] (partner 2 µM)
Summary of the method: as §1

Cell Line | relative viability (17-AAG + Lapatinib; first compound 0.00128 µM) | relative viability (17-AAG + Lapatinib; first compound 0.004048 µM) | relative viability (17-AAG + Lapatinib; first compound 0.0128 µM) | relative viability (17-AAG + Lapatinib; first compound 0.04048 µM) | relative viability (17-AAG + Lapatinib; first compound 0.128 µM) | relative viability (17-AAG + OSI-027; first compound 0.00128 µM) | relative viability (17-AAG + OSI-027; first compound 0.004048 µM) | relative viability (17-AAG + OSI-027; first compound 0.0128 µM) | relative viability (17-AAG + OSI-027; first compound 0.04048 µM) | relative viability (17-AAG + OSI-027; first compound 0.128 µM) | relative viability (17-AAG + Linsitinib; first compound 0.00128 µM) | relative viability (17-AAG + Linsitinib; first compound 0.004048 µM) | relative viability (17-AAG + Linsitinib; first compound 0.0128 µM) | relative viability (17-AAG + Linsitinib; first compound 0.04048 µM) | relative viability (17-AAG + Linsitinib; first compound 0.128 µM) | relative viability (17-AAG + Alpelisib; first compound 0.00128 µM) | relative viability (17-AAG + Alpelisib; first compound 0.004048 µM) | relative viability (17-AAG + Alpelisib; first compound 0.0128 µM) | relative viability (17-AAG + Alpelisib; first compound 0.04048 µM) | relative viability (17-AAG + Alpelisib; first compound 0.128 µM)
201T | 1 | 1.04 | 0.991 | 0.999 | 0.512 | 0.823 | 1.01 | 0.443 | 0.165 | 0.165 | 1.06 | 1.05 | 1.01 | 0.985 | 0.863 | 1.07 | 1.03 | 0.984 | 0.943 | 0.818
A549 | 0.99 | 0.548 | 0.129 | 0.0692 | 0.0593 |  |  |  |  |  | 0.646 | 0.487 | 0.371 | 0.105 | 0.0473 | 0.777 | 0.189 | 0.0463 | 0.056 | 0.0402
A-427 | 1.04 | 1.12 | 1.05 | 1.12 | 0.607 | 0.484 | 0.502 | 0.502 | 0.343 | 0.181 | 1.12 | 1.1 | 1.1 | 1.1 | 1.15 | 1.05 | 1.15 | 1.12 | 1.1 | 0.995
ABC-1 | 0.968 | 1.03 | 1.06 | 1.54 | 1.12 | 0.393 | 0.493 | 0.56 | 0.508 | 0.458 | 0.866 | 0.773 | 0.876 | 0.761 | 0.816 | 1.05 | 1.19 | 0.691 | 0.976 | 0.919
BEN | 0.859 | 0.726 | 0.727 | 0.405 | 0.204 | 0.337 | 0.307 | 0.256 | 0.232 | 0.2 | 0.971 | 0.947 | 0.911 | 0.89 | 0.276 | 1.02 | 0.978 | 1.04 | 0.84 | 0.257
CAL-12T | 0.645 | 0.598 | 0.611 | 0.527 | 0.334 | 0.564 | 0.807 | 0.713 | 0.411 | 0.128 | 0.764 | 0.815 | 0.73 | 0.425 | 0.276 | 1.43 | 1.09 | 0.993 | 0.706 | 0.658
COR-L23 | 0.769 | 0.82 | 1.06 | 0.852 | 0.169 | 0.853 | 0.786 | 0.817 | 0.661 | 0.0974 | 0.919 | 0.952 | 0.943 | 0.473 | 0.138 | 0.715 | 0.826 | 0.941 | 0.376 | 0.0924
Calu-6 | 1.03 | 1.01 | 0.861 | 0.323 | 0.135 |  |  |  |  |  | 0.86 | 0.977 | 0.942 | 0.353 | 0.146 | 0.959 | 0.928 | 0.915 | 0.363 | 0.188
ChaGo-K-1 |  |  |  |  |  | 0.514 | 0.71 | 0.51 | 0.24 | 0.16 |  |  |  |  |  |  |  |  |  | 
EBC-1 | 0.217 | 0.234 | 0.192 | 0.2 | 0.2 |  |  |  |  |  | 0.851 | 0.579 | 0.162 | 0.139 | 0.12 | 0.828 | 0.197 | 0.186 | 0.159 | 0.168
IA-LM | 1.06 | 0.736 | 0.479 | 0.502 | 0.0825 |  |  |  |  |  | 0.551 | 0.667 | 0.599 | 0.177 | 0.102 | 0.719 | 0.813 | 0.657 | 0.303 | 0.105
LCLC-103H |  |  |  |  |  | 0.484 | 0.496 | 0.478 | 0.515 | 0.383 | 1.15 | 1.12 | 1.13 | 0.965 | 0.992 | 1.05 | 0.974 | 0.998 | 0.996 | 1.11
NCI-H441 |  |  |  |  |  | 0.581 | 0.429 | 0.203 | 0.19 | 0.137 | 0.679 | 0.661 | 0.276 | 0.174 | 0.0829 | 0.625 | 0.61 | 0.236 | 0.172 | 0.145
NCI-H522 |  |  |  |  |  | 0.663 | 0.685 | 0.655 | 0.542 | 0.552 |  |  |  |  |  |  |  |  |  | 
NCI-H1299 | 0.964 | 0.904 | 0.924 | 0.779 | 0.416 |  |  |  |  |  | 0.999 | 0.922 | 0.919 | 0.894 | 0.714 | 1.04 | 1.05 | 1 | 0.94 | 0.729
NCI-H1648 |  |  |  |  |  | 0.274 |  | 0.345 | 0.261 | 0.259 |  |  |  |  |  |  |  |  |  | 
NCI-H1650 | 0.624 | 0.303 | 0.133 | 0.171 | 0.175 | 0.483 | 0.226 | 0.139 | 0.189 | 0.176 |  |  |  |  |  |  |  |  |  | 
NCI-H1703 | 0.998 | 0.315 | 0.182 | 0.176 | 0.208 |  |  |  |  |  | 0.3 | 0.687 | 0.115 | 0.148 | 0.0982 | 0.366 | 0.152 | 0.141 | 0.155 | 0.134
NCI-H2170 | 0.281 | 0.283 | 0.24 | 0.234 | 0.197 | 0.652 | 0.585 | 0.385 | 0.187 | 0.118 |  |  |  |  |  | 0.821 | 0.723 | 0.426 | 0.244 | 0.178
NCI-H2342 |  |  |  |  |  | 0.552 | 0.716 | 0.584 | 0.504 | 0.425 |  |  |  |  |  |  |  |  |  | 
SW 900 |  |  |  |  |  | 0.476 | 0.487 | 0.134 | 0.0879 | 0.0977 |  |  |  |  |  |  |  |  |  | 
